Structures can show the parent of a compound that is named as a salt.
Test: Krafft point of anionic surfactants
Format: physicochemical
Conditions: not given
Compound CCCCCCCCCCCCCCCCCC(=O)N(C)CCS(=O)(=O)O.[Na] has a Krafft point of 58 °C. CCCCCCCCCCCCS(=O)(=O)[O-].[Na+] [sodium dodecanesulfonate] gave a Krafft point of 38 °C. In the case of CCCCCCCCCCCCOS(=O)(=O)[O-].[Na+] [sodium dodecyl sulfate, reference compound], the Krafft point is reported as 9 °C. For CCCCCCCCCCCCc1ccc(S(=O)(=O)O)cc1 [sodium dodecylbenzenesulfonate], the Krafft point was 40 °C. With CCCCCCCCCCCCCCCCCS(=O)(=O)[O-].[Na+] [sodium heptadecanesulfonate] the Krafft point was 62 °C. CCCCCCCCCCCCCCCCS(=O)(=O)[O-].[Na+] [sodium hexadecanesulfonate] showed a Krafft point of 57 °C. Work on CCCCCCCCCCCCCCCCOS(=O)(=O)[O-].[Na+] [sodium hexadecyl sulfate] yielded a Krafft point of 43 °C. With CCCCCCCCCCCCCCCCc1ccc(S(=O)(=O)O)cc1 [sodium hexadecylbenzenesulfonate] the Krafft point was 46 °C. With CCCCCCCCCCCCCCCCCCS(=O)(=O)[O-].[Na+] [sodium octadecanesulfonate] the Krafft point was 70 °C. CCCCCCCCCCCCCCCCCCOCCOCCOS(=O)(=O)O [sodium octadecyl diether sulfate ester] showed a Krafft point of 40 °C. For CCCCCCCCCCCCCCCCCCOS(=O)(=O)[O-].[Na+] [sodium octadecyl sulfate], the Krafft point was 58 °C. For CCCCCCCCCCCCCCCCCCc1ccc(S(=O)(=O)O)cc1 [sodium octadecylbenzenesulfonate], the Krafft point was 56 °C. Work on CCCCCCCCCCCCCCCCCCOCCOS(=O)(=O)O [sodium octadecylether sulfate ester] yielded a Krafft point of 46 °C. In the case of CCCCCCCCCCCCCCCC(=O)NCCOS(=O)(=O)O [sodium palmitoyl ethanolamide sulfate ester], the Krafft point is reported as 42 °C. Compound CCCCCCCCCCCCCCCC(=O)NCCCOS(=O)(=O)O [sodium palmitoyl propanolamide sulfate ester] has a Krafft point of 47 °C. CCCCCCCCCCCCCCCC(=O)N(C)CCS(=O)(=O)O.[Na] [sodium palmitoylmethyltaurine] gave a Krafft point of 43 °C. CCCCCCCCCCCCCCCC(=O)NCCS(=O)(=O)O.[Na] [sodium palmitoyltaurine] showed a Krafft point of 43 °C. CCCCCCCCCCCCCCCS(=O)(=O)[O-].[Na+] [sodium pentadecanesulfonate] gave a Krafft point of 48 °C. Compound CCCCCCCCCCCCCCCCCC(=O)NCCOS(=O)(=O)O [sodium stearoyl ethanolamide sulfate ester] has a Krafft point of 53 °C. In the case of CCCCCCCCCCCCCCCCCC(=O)NCCCOS(=O)(=O)O [sodium stearoyl propanolamide sulfate ester], the Krafft point is reported as 57 °C. Work on CCCCCCCCCCCCCCCCCC(=O)NCCS(=O)(=O)O.[Na] [sodium stearoyltaurine] yielded a Krafft point of 58 °C. Compound CCCCCCCCCCCCCCS(=O)(=O)[O-].[Na+] [sodium tetradecanesulfonate] has a Krafft point of 48 °C. With CCCCCCCCCCCCCCc1ccc(S(=O)(=O)O)cc1 [sodium tetradecylbenzenesulfonate] the Krafft point was 43 °C. For sodium hexadecyl disulfate ester, the Krafft point was 39 °C. sodium octadecyl disulfate ester showed a Krafft point of 45 °C.

Test: observed phase transition temperature of phospholipids
Format: physicochemical
Conditions: phospholipid
In the case of CCCCCCCCCCCCCC(=O)OC[C@H](COP(=O)([O-])OCC[N+](C)(C)C)OC(=O)CCCCCCCCCCCCC [DMPC, dimyristoylphosphatidyl choline], the “observed phase transition temperature” value is reported as 23.9 °C. With CCCCCCCCCCCCCC(=O)OCC(COP(=O)(O)OCCN)OC(=O)CCCCCCCCCCCCC (centres unmarked) [DMPE, dimyristoylphosphatidyl ethanolamine] the “observed phase transition temperature” value was 50 °C. In the case of CCCCCCCCCCCCCC(=O)OCC(COP(=O)(O)OCC(O)CO)OC(=O)CCCCCCCCCCCCC (centres unmarked) [DMPG, dimyristoylphosphatidyl glycrine], the “observed phase transition temperature” value is reported as 23 °C. For CCCCCCCCCCCCCC(=O)OCC(COP(=O)(O)OCC(N)C(=O)O)OC(=O)CCCCCCCCCCCCC (centres unmarked) [DMPS, dimyristoylphosphatidyl serine], the “observed phase transition temperature” value was 38 °C. In the case of CCCCCCCCCCCCCCCC(=O)OC[C@H](COP(=O)([O-])OCC[N+](C)(C)C)OC(=O)CCCCCCCCCCCCCCC [DPPC, dipalmitoylphosphatidyl choline], the “observed phase transition temperature” value is reported as 41.4 °C. With CCCCCCCCCCCCCCCC(=O)OCC(COP(=O)(O)OCCN)OC(=O)CCCCCCCCCCCCCCC (centres unmarked) [DPPE, dipalmitoylphosphatidyl ethanolamine] the “observed phase transition temperature” value was 60 °C. In the case of CCCCCCCCCCCCCCCC(=O)OCC(COP(=O)(O)OCC(O)CO)OC(=O)CCCCCCCCCCCCCCC (centres unmarked) [DPPG, dipalmitoylphosphatidyl glycerine], the “observed phase transition temperature” value is reported as 41 °C. In the case of CCCCCCCCCCCCCCCC(=O)OCC(COP(=O)(O)OCC(N)C(=O)O)OC(=O)CCCCCCCCCCCCCCC (centres unmarked) [DPPS, dipalmitoylphosphatidyl serine], the “observed phase transition temperature” value is reported as 51 °C. With CCCCCCCCCCCCCCCCCC(=O)OCC(COP(=O)([O-])OCC[N+](C)(C)C)OC(=O)CCCCCCCCCCCCCCCCC (centres unmarked) [DSPC, distearoylphosphatidyl choline] the “observed phase transition temperature” value was 54.9 °C. For CCCCCCCCCCCCCCCCCC(=O)OCC(COP(=O)(O)OCCN)OC(=O)CCCCCCCCCCCCCCCCC (centres unmarked) [DSPE, distearoylphosphatidyl ethanolamine], the “observed phase transition temperature” value was “above 60 °C”. For CCCCCCCCCCCCCCCCCC(=O)OCC(COP(=O)(O)OCC(O)CO)OC(=O)CCCCCCCCCCCCCCCCC (centres unmarked) [DSPG, distearoylphosphatidyl glycerine], the “observed phase transition temperature” value was 55 °C. With CCCCCCCCCCCCCCCCCC(=O)OCC(COP(=O)(O)OCC(N)C(=O)O)OC(=O)CCCCCCCCCCCCCCCCC (centres unmarked) [DSPS, distearoylphosphatidyl serine] the “observed phase transition temperature” value was at least 50 °C. With CCCCCCCCCCCCCCCC(=O)OC(COC(=O)CCCCCCCCCCCCC)COP(=O)([O-])OCC[N+](C)(C)C (centres unmarked) [MPPC, myristoylpalmitoylphosphatidyl choline] the “observed phase transition temperature” value was 35.3 °C. With CCCCCCCCCCCCCCCC(=O)OCC(COP(=O)([O-])OCC[N+](C)(C)C)OC(=O)CCCCCCCCCCCCC (centres unmarked) [PMPC, palmitoylmyristoylphosphatidyl choline] the “observed phase transition temperature” value was 27.2 °C. In the case of CCCCCCCCCCCCCCCCCC(=O)OC(COC(=O)CCCCCCCCCCCCCCC)COP(=O)([O-])OCC[N+](C)(C)C (centres unmarked) [PSPC, palmitoylstearoylphosphatidyl choline], the “observed phase transition temperature” value is reported as 47.4 °C. In the case of CCCCCCCCCCCCCCCCCC(=O)OCC(COP(=O)([O-])OCC[N+](C)(C)C)OC(=O)CCCCCCCCCCCCCCC (centres unmarked) [SPPC, stearoylpalmitoylphosphatidyl choline], the “observed phase transition temperature” value is reported as 44.0 °C. For dipalmitoyl sphingomyelin [DPSM], the “observed phase transition temperature” value was 41 °C. For distearoyl sphingomyelin [DSSM], the “observed phase transition temperature” value was 57 °C.

Test: dissolution of SMT in aqueous 6-CF solution
Format: physicochemical
Conditions: 30 mg in 10 ml, pH 7, room temperature
Experimental: 270 mg of DPPC and 30 mg of DSPC were dissolved in 70 ml of 1:1 mixture of chloroform and isopropylether in a 1--1 beaker. To 10 ml of an aqueous solution of 6-carboxyfluorescein (6-CF), pH 7, which had been prepared beforehand so that the osmotic pressure might be the same as that of the physiological saline, 30 mg of sodium stearoylmethyltaurine (SMT) was added at room temperature. […] Then this solution was added to the solution of the phospholipid in an organic solvent, and emulsified by a probe type sonicator (Ohtake, Japan), to give a w/o type emulsion. Sonication at 50 watt for 30 seconds was repeated 10 times. This emulsion was charged to a rotary evaporator to evaporate off the organic solvent at 60° C. under reduced pressure, to give REV. The pressure in the evaporator was reduced greatly in the initial stage, but then adjusted in the course of evaporation of the organic solvent to prevent bumping. A small amount of the organic solvent remained in REV was further evaporated off by blowing nitrogen gas. […] The entrapment ratio of 6CF in this liposome composition was 33.2% as determined by quantification of 6-Cf entrapped in liposome (Note 1).
With CCCCCCCCCCCCCCCCCC(=O)N(C)CCS(=O)(=O)O.[Na] the “solubility of SMT in aqueous 6-CF solution” value was “almost insoluble”.

— patent publication US5019394A, “Liposome composition and its production” (Takeda Chemical Industries, Ltd., priority 1987, dated 1991)
